Activity calls are given as the source filed them. The calls are words filed in the database; no cut-off is given here.
Columns and labels:
[1] = Cell cycle arrest in human K562/4 cells assessed as accumulation at sub-G1 phase at 1 uM up to 48 hrs by propidium iodide staining based flow cytometry relative to control; type: functional
[2] = Drug uptake in human K562 cells at 2 uM after 1 to 24 hrs by flow cytometry; type: ADME, cell-based; conditions: k562, 2 µM
L1210 = experiment: Antiproliferative activity against mouse L1210 cells after 48 hrs by MTT assay; type: functional, cell-based; conditions: L1210, 48 h
[3] = Resistance index, ratio of IC50 for human K562/4 cells to IC50 for human K562 cells; type: functional
TMK-1 [4] = experiment: Induction of apoptosis in human TMK1 cells after 24 hrs by Annexin V-FITC staining based flow cytometry; type: functional, cell-based
[5] = Antiproliferative activity against human K562/4 cells after 72 hrs by MTT assay; type: functional, cell-based; conditions: K562/4, 72 h
CCRF-CEM = experiment: Antiproliferative activity against human CEM cells after 72 hrs by MTT assay; type: functional, cell-based
TMK-1 [6] = experiment: Induction of apoptosis in human TMK1 cells at 1 uM after 24 hrs by Annexin V-FITC staining based flow cytometry relative to control; type: functional
HeLa = experiment: Antiproliferative activity against human HeLa cells after 72 hrs by MTT assay; type: functional, cell-based
Lymphocyte = experiment: Cytotoxicity against human lymphocytes assessed as reduction in cell viability at 25 uM after 72 hrs by MTT assay; type: cell-based
K562 [7] = experiment: Cell cycle arrest in human K562 cells assessed as accumulation at sub-G1 phase at 1 uM up to 48 hrs by propidium iodide staining based flow cytometry relative to control; type: functional
[8] = Substrate activity at P-gp in human K562/4 cells assessed as test compound accumulation at 2 uM after 1 to 24 hrs by flow cytometry; type: ADME, cell-based
Homo sapiens = species: Homo sapiens; experiment: Cell cycle arrest in human K562/4 cells assessed as accumulation at G2/M phase at 1 uM after 24 hrs by propidium iodide staining based flow cytometry; type: functional
[9] = molecular target: T1, DNA topoisomerase 1 (Homo sapiens) (UniProt P11387); experiment: Inhibition of human topoisomerase-1 at 10 uM using supercoiled pBR322 DNA as substrate after 30 mins by agarose gel electrophoresis method
T1 sequence (whole entry): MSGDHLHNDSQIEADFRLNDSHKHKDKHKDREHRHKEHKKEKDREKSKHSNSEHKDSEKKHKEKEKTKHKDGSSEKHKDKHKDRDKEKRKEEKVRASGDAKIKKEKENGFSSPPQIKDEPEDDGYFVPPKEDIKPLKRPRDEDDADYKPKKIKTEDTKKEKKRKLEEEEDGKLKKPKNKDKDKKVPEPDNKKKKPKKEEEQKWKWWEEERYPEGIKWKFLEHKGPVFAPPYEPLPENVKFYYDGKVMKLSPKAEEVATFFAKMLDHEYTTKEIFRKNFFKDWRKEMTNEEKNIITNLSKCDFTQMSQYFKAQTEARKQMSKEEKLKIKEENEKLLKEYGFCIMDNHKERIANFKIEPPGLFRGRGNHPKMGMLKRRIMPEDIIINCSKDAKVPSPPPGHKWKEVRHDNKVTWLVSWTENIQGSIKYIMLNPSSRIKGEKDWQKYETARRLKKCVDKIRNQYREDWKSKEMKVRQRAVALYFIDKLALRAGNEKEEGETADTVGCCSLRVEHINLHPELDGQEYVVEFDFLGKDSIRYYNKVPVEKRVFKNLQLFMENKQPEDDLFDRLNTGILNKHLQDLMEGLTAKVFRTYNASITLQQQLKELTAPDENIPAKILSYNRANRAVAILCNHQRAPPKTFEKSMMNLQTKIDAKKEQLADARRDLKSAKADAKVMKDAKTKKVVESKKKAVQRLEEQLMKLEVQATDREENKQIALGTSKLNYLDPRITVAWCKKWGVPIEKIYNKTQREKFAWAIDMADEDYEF

MKN-45 [10] = experiment: Induction of apoptosis in human MKN45 cells after 24 hrs by Annexin V-FITC staining based flow cytometry; type: functional, cell-based
MKN-45 [11] = experiment: Induction of apoptosis in human MKN45 cells at 1 uM after 24 hrs by Annexin V-FITC staining based flow cytometry relative to control; type: functional
HCT-116 [12] = experiment: Antiproliferative activity against p53 knockout human HCT116 cells after 72 hrs by MTT assay; type: functional, cell-based; conditions: HCT-116, 72 h
MKN-45 [13] = experiment: Induction of ROS generation in human MKN45 cells at 0.1 to 1 uM after 30 mins by H2DCFDA staining based flow cytometry; type: functional, cell-based
[14] = Resistance index, ratio of IC50 for p53 knockout human HCT116 cells to IC50 for human HCT116 cells; type: functional
K562 [15] = experiment: Antiproliferative activity against human K562 cells after 72 hrs by MTT assay; type: functional, cell-based; conditions: K562, 72 h
TMK-1 [16] = experiment: Induction of ROS generation in human TMK1 cells at 0.1 to 1 uM after 30 mins by H2DCFDA staining based flow cytometry; type: functional, cell-based
HCT-116 [17] = experiment: Antiproliferative activity against human HCT116 cells after 72 hrs by MTT assay; type: functional, cell-based; conditions: HCT-116, 72 h
K562 [18] = experiment: Cell cycle arrest in human K562 cells assessed as accumulation at G2/M phase at 1 uM after 24 hrs by propidium iodide staining based flow cytometry; type: functional

In the case of `O=C1c2ccccc2C(=O)c2c1c(O)c1occ(C(=O)NC3CCCNC3)c1c2O` (racemic), the Activity [1] is reported as >70%, the Drug uptake [2] is reported as “Active” and the IC50 (L1210) is reported as 700 nM. The “Ratio IC50” value [3] was 2.1, the Activity (TMK-1 [4]) was “Dose-dependent effect” and the IC50 [5] was 1200 nM. For the same compound, the IC50 (CCRF-CEM) was 900 nM, the Activity (TMK-1 [6]) was 60 - 90% and the IC50 (HeLa) was 700 nM. The Activity (Lymphocyte) was “Non-Toxic”, the Activity (K562 [7]) was >70% and the Activity [8] was “Not Active”. For the same compound, the Activity (Homo sapiens) was “Active”, the inhibition [9] was “Active” and the Activity (MKN-45 [10]) was “Dose-dependent effect”. The Activity (MKN-45 [11]) was 60 - 90%, the IC50 (HCT-116 [12]) was 800 nM and the Activity (MKN-45 [13]) was “Active”. The “Ratio IC50” value [14] was 1.3, the IC50 (K562 [15]) was 600 nM and the Activity (TMK-1 [16]) was “Active”. For the same compound, the IC50 (HCT-116 [17]) was 600 nM and the Activity (K562 [18]) was “Active”.

Source: ChEMBL document CHEMBL4196018, “New antitumor anthra[2,3-b]furan-3-carboxamides: Synthesis and structure-activity relationship” (Eur J Med Chem, 2018)
